Results on 26 molecules are retold here after patent US11254686B1 (Corvus Pharmaceuticals, Inc., priority 2017, dated 2022).

The target in one assay is adenosine A2B receptor (Homo sapiens (Human), UniProt P29275). As to the kind of experiment: Adenosine receptor activity assay (Table 1), A2B activity. As to conditions: for Ratio: A2A activity to A2B activity (A2A/A2B); for IC50: read-out: Ave A2B cAMP IC50. The class given is biochemical.
The target in the next assay is adenosine A2A receptor (Homo sapiens (Human), UniProt P29274). As to the kind of experiment: Adenosine receptor activity assay (Table 1), A2A activity. The class given is biochemical. The following applies: read-out: Ave A2A cAMP IC50.

A word on the IC50: it is the point on the concentration scale where inhibition reaches its midpoint.

adenosine A2A receptor, sequence (P29274 whole entry): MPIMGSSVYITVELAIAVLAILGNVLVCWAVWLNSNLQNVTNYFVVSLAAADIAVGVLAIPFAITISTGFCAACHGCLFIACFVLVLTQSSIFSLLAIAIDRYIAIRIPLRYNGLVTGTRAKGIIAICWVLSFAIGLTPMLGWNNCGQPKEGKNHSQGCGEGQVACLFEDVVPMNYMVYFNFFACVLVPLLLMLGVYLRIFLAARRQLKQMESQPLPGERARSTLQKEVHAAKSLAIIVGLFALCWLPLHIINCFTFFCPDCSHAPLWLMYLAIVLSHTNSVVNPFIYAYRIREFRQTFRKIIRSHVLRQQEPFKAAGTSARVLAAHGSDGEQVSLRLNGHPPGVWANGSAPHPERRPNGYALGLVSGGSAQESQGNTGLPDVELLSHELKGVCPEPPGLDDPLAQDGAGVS
adenosine A2B receptor, sequence (P29275 whole entry): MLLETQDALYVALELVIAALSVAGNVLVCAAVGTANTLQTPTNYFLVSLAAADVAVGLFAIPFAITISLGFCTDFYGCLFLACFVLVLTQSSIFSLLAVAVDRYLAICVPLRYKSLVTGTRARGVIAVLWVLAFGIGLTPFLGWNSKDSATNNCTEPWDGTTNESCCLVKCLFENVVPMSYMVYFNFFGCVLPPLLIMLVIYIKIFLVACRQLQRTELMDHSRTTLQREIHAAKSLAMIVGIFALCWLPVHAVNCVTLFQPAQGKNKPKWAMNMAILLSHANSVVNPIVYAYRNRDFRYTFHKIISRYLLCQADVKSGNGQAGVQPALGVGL

Turning to `C[C@H](Nc1nc(C(=O)N2CC[C@@H](O)C2)c2sc(C(F)(F)F)cc2n1)c1ccccn1` [Example Z349, ((R)-3-Hydroxypyrrolidin-1-yl)(2-(((S)-1-(pyridin-2-yl)ethyl)amino)-6-(trifluoromethyl)thieno[3,2-d]pyrimidin-4-yl)methanone], on adenosine A2B receptor, the Ratio was found to be 46.63. Further, the concentration for half-maximal inhibition (IC50) was 10 to 50 nM at adenosine A2B receptor and > 500 nM on adenosine A2A receptor.

Turning to `CO[C@H]1CCN(C(=O)c2nc(N[C@@H](C)c3cccnc3)nc3cc(C)sc23)C1` [Example Z350, ((S)-3-Methoxypyrrolidin-1-yl)(6-methyl-2-(((S)-1-(pyridin-3-yl)ethyl)amino)thieno[3,2-d]pyrimidin-4-yl)methanone], at adenosine A2B receptor, the Ratio came to 4.80 and the 50% inhibitory concentration (IC50) is 10 to 50 nM. Besides, the IC50 at adenosine A2A receptor lay in the range of 100 to 500 nM.

`CO[C@@H]1CCN(C(=O)c2nc(N[C@@H](C)c3cccnc3)nc3cc(C)sc23)C1` [Example Z351, ((R)-3-Methoxypyrrolidin-1-yl)(6-methyl-2-(((S)-1-(pyridin-3-yl)ethyl)amino)thieno[3,2-d]pyrimidin-4-yl)methanone]: the Ratio on adenosine A2B receptor is 10.17. The IC50 at adenosine A2B receptor is < 10 nM; on adenosine A2A receptor it was 50 to 100 nM.

As for `C[C@H](Nc1nc(C(=O)N2CCC(C(=O)OC(C)(C)C)C2)c2sccc2n1)c1cncc(F)c1` (stereo partly drawn) [Example Z354, tert-Butyl 1-(2-(((S)-1-(5-fluoropyridin-3-yl)ethyl)amino)thieno[3,2-d]pyrimidine-4-carbonyl)pyrrolidine-3-carboxylate], on adenosine A2B receptor, the Ratio turned out to be 6.35. For the same molecule, the values for the IC50 at adenosine A2B receptor and at adenosine A2A receptor were 10 to 50 nM and 100 to 500 nM, respectively.

In the case of `C[C@H](Nc1nc(C(=O)N2CCC(C(=O)OC(C)(C)C)C2)c2sccc2n1)c1ccccn1` (stereo partly drawn) [Example Z355, tert-Butyl 1-(2-(((S)-1-(pyridin-2-yl)ethyl)amino)thieno[3,2-d]pyrimidine-4-carbonyl)pyrrolidine-3-carboxylate], on adenosine A2B receptor, the Ratio came out at 1.96 and the half-maximal inhibitory concentration (IC50) was in the range of 100 to 500 nM. Moreover, the IC50 at adenosine A2A receptor was > 500 nM.

With `C[C@H](Nc1nc(C(=O)NCCN2CCCC2)c2sccc2n1)c1ccccn1` [Example Z356, (S)-2-((1-(Pyridin-2-yl)ethyl)amino)-N-(2-(pyrrolidin-1-yl)ethyl)thieno[3,2-d]pyrimidine-4-carboxamide], on adenosine A2B receptor, the Ratio was 3.31. In addition, the IC50 at adenosine A2B receptor and on adenosine A2A receptor was > 500 nM in each case.

For the molecule `C[C@H](Nc1nc(C(=O)NCCN2CCCC2)c2sccc2n1)c1cncc(F)c1` [Example Z357, (S)-2-((1-(5-Fluoropyridin-3-yl)ethyl)amino)-N-(2-(pyrrolidin-1-yl)ethyl)thieno[3,2-d]pyrimidine-4-carboxamide], at adenosine A2B receptor, the Ratio came to 3.03 and the IC50 was > 500 nM. Also, on adenosine A2A receptor, the IC50 is > 500 nM.

Take `CNC1CN(C(=O)c2nc(NCc3cncc(F)c3)nc3ccsc23)C1` [Example Z358, (2-(((5-Fluoropyridin-3-yl)methyl)amino)thieno[3,2-d]pyrimidin-4-yl)(3-(methylamino)azetidin-1-yl)methanone]: on adenosine A2B receptor, the Ratio is listed as 69.69 and the half-inhibitory concentration (IC50) lay in the range of 100 to 500 nM. The IC50 at adenosine A2A receptor was > 500 nM.

On to `O=C(c1nc(NCCc2ccc(O)cc2)nc2ccsc12)N1CCCC1` [Example Z359, (2-((4-Hydroxyphenethyl)amino)thieno[3,2-d]pyrimidin-4-yl)(pyrrolidin-1-yl)methanone], for which, at adenosine A2B receptor, the Ratio turned out to be 2.57 and the 50% inhibitory concentration (IC50) lay in the range of 100 to 500 nM. Also, on adenosine A2A receptor, the IC50 was 100 to 500 nM.

On to `N[C@H]1CCN(C(=O)c2nc(NCc3cncc(F)c3)nc3ccsc23)C1` [Example Z360, (S)-(3-Aminopyrrolidin-1-yl)(2-(((5-fluoropyridin-3-yl)methyl)amino)thieno[3,2-d]pyrimidin-4-yl)methanone], for which, at adenosine A2B receptor, the Ratio amounted to 72.24 and the IC50 fell in the range of 100 to 500 nM. Besides, at adenosine A2A receptor, the IC50 is > 500 nM.

`N[C@@H]1CCN(C(=O)c2nc(NCc3cncc(F)c3)nc3ccsc23)C1` [Example Z361, (R)-(3-Aminopyrrolidin-1-yl)(2-(((5-fluoropyridin-3-yl)methyl)amino)thieno[3,2-d]pyrimidin-4-yl)methanone]: at adenosine A2B receptor, the Ratio was determined as 28.33 and the IC50 fell in the range of 100 to 500 nM. Further, the IC50 at adenosine A2A receptor was > 500 nM.

As for `C[C@H](Nc1nc(C(=O)N2CC[C@H](N)C2)c2sccc2n1)c1cncc(F)c1` [Example Z362, ((S)-3-Aminopyrrolidin-1-yl)(2-(((S)-1-(5-fluoropyridin-3-yl)ethyl)amino)thieno[3,2-d]pyrimidin-4-yl)methanone], on adenosine A2B receptor, the Ratio turned out to be 95.57 and the IC50 was 10 to 50 nM. The IC50 at adenosine A2A receptor was > 500 nM.

With `C[C@H](Nc1nc(C(=O)N2CC[C@H](N)C2)c2sccc2n1)c1ccccn1` [Example Z363, ((S)-3-Aminopyrrolidin-1-yl)(2-(((S)-1-(pyridin-2-yl)ethyl)amino)thieno[3,2-d]pyrimidin-4-yl)methanone], the Ratio on adenosine A2B receptor is listed as 23.53. Also, the IC50 was 100 to 500 nM at adenosine A2B receptor and > 500 nM on adenosine A2A receptor.

Regarding `C[C@H](Nc1nc(C(=O)N2CC[C@@H](N)C2)c2sccc2n1)c1ccccn1` [Example Z364, ((R)-3-Aminopyrrolidin-1-yl)(2-(((S)-1-(pyridin-2-yl)ethyl)amino)thieno[3,2-d]pyrimidin-4-yl)methanone], the Ratio on adenosine A2B receptor stood at 11.16. The IC50 on adenosine A2B receptor was 100 to 500 nM; on adenosine A2A receptor, > 500 nM.

Take `C[C@H](Nc1nc(C(=O)NCCC2CCN(C(=O)OC(C)(C)C)C2)c2sccc2n1)c1cncc(F)c1` (stereo partly drawn) [Example Z365, tert-Butyl 3-(2-(2-(((S)-1-(5-fluoropyridin-3-yl)ethyl)amino)thieno[3,2-d]pyrimidine-4-carboxamido)ethyl)pyrrolidine-1-carboxylate]: on adenosine A2B receptor, the Ratio was 2.19. The results for the IC50 on adenosine A2B receptor and on adenosine A2A receptor were 10 to 50 nM and 50 to 100 nM, respectively.

Consider `C[C@H](Nc1nc(C(=O)N2CC[C@@H](N)C2)c2sccc2n1)c1cccnc1` [Example Z366, ((R)-3-Aminopyrrolidin-1-yl)(2-(((S)-1-(pyridin-3-yl)ethyl)amino)thieno[3,2-d]pyrimidin-4-yl)methanone], for which, at adenosine A2B receptor, the Ratio stood at 1.86. The IC50 at adenosine A2B receptor and on adenosine A2A receptor was > 500 nM each time.

Take `C[C@H](Nc1nc(C(=O)N2CC[C@H](N)C2)c2sccc2n1)c1cccnc1` [Example Z367, ((S)-3-Aminopyrrolidin-1-yl)(2-(((S)-1-(pyridin-3-yl)ethyl)amino)thieno[3,2-d]pyrimidin-4-yl)methanone]: at adenosine A2B receptor, the Ratio is recorded as 5.78 and the IC50 is > 500 nM. Also, the IC50 at adenosine A2A receptor is > 500 nM.

Take `O=C(NC[C@H]1CCCN1)c1nc(NCc2cncc(F)c2)nc2ccsc12` [Example Z369, (R)-2-(((5-Fluoropyridin-3-yl)methyl)amino)-N-(pyrrolidin-2-ylmethyl)thieno[3,2-d]pyrimidine-4-carboxamide]: the Ratio on adenosine A2B receptor amounted to 2.26. The half-maximal inhibitory concentration (IC50) at adenosine A2B receptor and at adenosine A2A receptor was > 500 nM in each case.

With `C[C@H](Nc1nc(C(=O)NC[C@H]2CCCN2)c2sccc2n1)c1ccccn1` [Example Z370, 2-(((S)-1-(pyridin-2-yl)ethyl)amino)-N—(((R)-pyrrolidin-2-yl)methyl)thieno[3,2-d]pyrimidine-4-carboxamide], at adenosine A2B receptor, the Ratio is reported as 1.81 and the 50% inhibitory concentration (IC50) was > 500 nM. Further, the 50% inhibitory concentration (IC50) on adenosine A2A receptor is > 500 nM.

In the case of `N[C@H]1CCN(C(=O)c2nc(NCc3cc(F)cc(F)c3)nc3ccsc23)C1` [Example Z371, (S)-(3-Aminopyrrolidin-1-yl)(2-((3,5-difluorobenzyl)amino)thieno[3,2-d]pyrimidin-4-yl)methanone], at adenosine A2B receptor, the Ratio was found to be 11.56 and the half-maximal inhibitory concentration (IC50) was > 500 nM. Also, at adenosine A2A receptor, the IC50 is > 500 nM.

On to `Cc1cc2nc(N[C@@H](C)c3cncc(F)c3)nc(C(=O)NCCN3CCOCC3)c2s1` [Example Z372, (S)-2-((1-(5-Fluoropyridin-3-yl)ethyl)amino)-6-methyl-N-(2-morpholinoethyl)thieno[3,2-d]pyrimidine-4-carboxamide], for which, on adenosine A2B receptor, the Ratio turned out to be 33.10 and the IC50 lay within 50 to 100 nM. Besides, the half-inhibitory concentration (IC50) on adenosine A2A receptor is > 500 nM.

On to `Cc1cc2nc(N[C@@H](C)c3cccnc3)nc(C(=O)NCC3CCOCC3)c2s1` [Example Z375, (S)-6-Methyl-2-((1-(pyridin-3-yl)ethyl)amino)-N-((tetrahydro-2H-pyran-4-yl)methyl)thieno[3,2-d]pyrimidine-4-carboxamide], for which, at adenosine A2B receptor, the Ratio is reported as 7.89. Also, the IC50 was in the range of 10 to 50 nM on adenosine A2B receptor and 100 to 500 nM on adenosine A2A receptor.

With `Cc1cc2nc(N[C@@H](C)c3cccnc3)nc(C(=O)NCC3CCNCC3)c2s1` [Example Z377, (S)-6-Methyl-N-(piperidin-4-ylmethyl)-2-((1-(pyridin-3-yl)ethyl)amino)thieno[3,2-d]pyrimidine-4-carboxamide], at adenosine A2B receptor, the Ratio was determined as 39.59 and the half-inhibitory concentration (IC50) lay in the range of 100 to 500 nM. Further, the IC50 at adenosine A2A receptor was > 500 nM.

In the case of `Cc1cc2nc(N[C@@H](C)c3cccnc3)nc(C(=O)NCCN3CCOCC3)c2s1` [Example Z378, (S)-6-Methyl-N-(2-morpholinoethyl)-2-((1-(pyridin-3-yl)ethyl)amino)thieno[3,2-d]pyrimidine-4-carboxamide], on adenosine A2B receptor, the Ratio worked out at 15.93 and the half-inhibitory concentration (IC50) lay within 100 to 500 nM. Also, on adenosine A2A receptor, the IC50 was > 500 nM.

Take `C[C@H](Nc1nc(C(=O)N2CCC(C(=O)O)C2)c2sccc2n1)c1cncc(F)c1` (stereo partly drawn) [Example Z379, 1-(2-(((S)-1-(5-Fluoropyridin-3-yl)ethyl)amino)thieno[3,2-d]pyrimidine-4-carbonyl)pyrrolidine-3-carboxylic acid]: at adenosine A2B receptor, the Ratio came out at 68.03 and the IC50 fell in the range of 100 to 500 nM. The IC50 on adenosine A2A receptor is > 500 nM.

For `C[C@H](Nc1nc(C(=O)N2CCC(C(=O)O)C2)c2sccc2n1)c1ccccn1` (stereo partly drawn) [Example Z380, 1-(2-(((S)-1-(Pyridin-2-yl)ethyl)amino)thieno[3,2-d]pyrimidine-4-carbonyl)pyrrolidine-3-carboxylic acid], the Ratio at adenosine A2B receptor was 13.21. Further, the concentration for half-maximal inhibition (IC50) at adenosine A2B receptor and on adenosine A2A receptor was > 500 nM each time.
